Literature values in patent US5756528A, “Inhibitors of farnesyl-protein transferase” (Merck & Co., Inc., priority 1996, dated 1998).

Tested on: farnesyl-protein transferase
Conditions: via HMG-CoA reductase inhibition, background literature

SMILES	Indirect inhibition of farnesyl-protein transferase in vivo
CC[C@H](C)C(=O)O[C@H]1CCC=C2C=C[C@H](C)[C@H](CC[C@@H]3C[C@@H](O)CC(=O)O3)[C@H]21 [compactin]	Indirect inhibition of farnesyl-protein transferase in vivo has been demonstrated
CC[C@H](C)C(=O)O[C@H]1C[C@@H](C)C=C2C=C[C@H](C)[C@H](CC[C@@H]3C[C@@H](O)CC(=O)O3)[C@H]21 [lovastatin]	Indirect inhibition of farnesyl-protein transferase in vivo has been demonstrated
